Reference: publication PMC8512853, “Synthesis, Bioactivity, Pharmacokinetic and Biomimetic Properties of Multi-Substituted Coumarin Derivatives” (Molecules, 2021)

Columns and labels:
[1] = MTT cell viability assay, HaCaT; type: cell-based, human; details: human, HaCaT cells, 100 μΜ, 24 h
From the text: The MTT assay (3- [4,5-dimethylthiazol-2-yl] -2,5 diphenyl tetrazole) is based on the conversion of MTT to formazan crystals by living cells, which determines mitochondrial activity. Since for most cell populations total mitochondrial activity is related to the number of viable cells, this assay is widely used to measure the in vitro cytotoxic effects of drugs on various cell lines or primary cells. The principle of the MTT assay is that for most viable cells the mitochondrial activity is stable, and therefore, an increase or decrease in the number of viable cells is linearly related to mitochondrial activity. The mitochondrial activity of the cells is reflected by the conversion of the MTT tetrazole salt to formazan crystals (bright purple), which can be solubilized (in this protocol with DMSO) for homogeneous measurement. Thus, any increase or decrease in the number of viable cells can be detected by measuring the formazan concentration reflected in the optical density (OD) measurement at 540 nm with a reference absorption of 720 nm.
All the compounds were tested for their cytotoxic activity against blank and control samples in the human epidermal keratinocyte line (HaCaT), at the concentration of 100 μΜ, and the results are presented in Table 4.
This protocol was used for the evaluation of cell viability and all the cell lines. It must be noted that this assay describes the count of cells that remain alive after the treatment. For the experimental procedure a standard solution of MTT 1mg/mL in PBS was prepared which after filtration ([…] filter (Millipore, Carrigtwohill, Ireland)) was stored in the dark (4–8 °C) until use. In a 96-well plate, HaCaT, A549 and A375 cells were seeded in a number of 30 × 10^4 cells/well for each evaluation series respectively. The cells were incubated (37 °C, 5% CO2) for 24 h, followed by the addition of the tested analogues (100 μM, diluted in DMEM) and another 24-h incubation. Next, appropriate amount of MTT was added in the tested wells and the plate returned to the incubator for the next 4 h for the formation of the formazan crystals. The formazan crystals were then redissolved by adding DMSO (100 μL) and stirring lightly for 40 min, after which the absorbance was measured in a plate reader at 540 nm with a reference absorbance of 720 nm.
All samples were tested in triplicate, against a control (only cells), blank (no cells), and positive control (100 μM standard silibinin solution was used as a “cell-killing” standard).

[2] = Hydroxyl (HO•) free radical scavenging assay (competition with DMSO)
From the text: The hydroxyl (HO^•) free radical is considered as the most toxic and reactive radical among the ROS, leading to cellular or protein damage, membrane destruction, and even to cellular death when encountered in excess concentration. In this context, the evaluation of the hydroxyl radical scavenging activity of the coumarin analogues was essential. Hydroxyl radicals are mainly produced by the Haber–Weiss reaction in the presence of iron or copper ions. In this protocol, iron-EDTA solution, which catalyzes the autooxidation of ascorbic acid, was used as the hydroxyl radical generation system. In general, the hydroxyl radicals formed oxidize the DMSO to form formaldehyde. The reaction involves the initial interaction of DMSO with the hydroxyl radicals to give methyl radicals, with the final product being formaldehyde, which is determined by Nash method. The intensity of the yellow solution formed was measured at 412 nm against a reagent blank.
For the evaluation of hydroxyl radical scavenging ability, the protocol described by Kontogiorgis et al. was used. In short, each sample was tested in quadruplicate (A, B, C, D). For A and B, 10 μL of coumarin analogs diluted in DMSO (100 mM) were added; for C and D were the respective blanks. Standards (containing DMSO solution) and blanks were all prepared in a similar manner; to the latter an equal amount (10 µL) of solvent was added instead of the tested analogues. According to the protocol described by Klein et al., standard solutions of EDTA, FeCl3, ascorbic acid, and buffer solution (pH 7.4) were also added to each of the tested mixtures. All mixtures were incubated at 37 °C for 30 min, and then 1 mL of Nash solution and […] of CCl3COOH solution were added. After a 10min incubation at 60 °C to allow the formation of the yellow mixture, the absorbance was measured at […].
The results were calculated as performance percentages in relation to the respective standards and blanks according to the following Equation (4):(4) % Scavenging ability= Mean OD(A+B)−Mean OD(C+D)/Mean OD(A+B)

[3] = ABTS radical scavenging assay; details: 6 min
Protocol: The ABTS radical cation scavenging assay is a decolorization assay frequently used as an antioxidant activity estimation protocol. […] The absorbance is measured at 734 nm and the antioxidant capacity is compared to a standard antioxidant solution, such as ascorbic acid.
For the evaluation of antioxidant activity, the scavenging capacities of all samples were measured via the ABTS assay, as previously described by Kontogiorgis et al. with some modifications. Briefly, an ethanolic standard ABTS solution (7 mM) was prepared by the addition of ABTS salt and potassium persulfate. […] Each sample was diluted in DMSO and tested in triplicate. The tested mixture contained 10–20 µL of sample and 990–980 µL of the ABTS solution, for a total volume of 1 ml. Blank samples contained equal amounts of DMSO instead of the coumarin analogues, and ascorbic acid was used as a reference sample for the final evaluation of the ABTS scavenging capacity. All mixtures were stored at room temperature to allow decolorization and measured after 6 min. The percentage reduction of the ABTS radical was evaluated according to the following Equation (3):(3) % Reduction=Control OD (mean)−Sample OD (mean)/Control OD (mean)×100

Cc1c(-c2ccc(O)cc2)c(=O)oc2c(Br)cc(Br)cc12 [Compound 4k, 6,8-dibromo-3-(4-hydroxyphenyl)-4-methyl-chromen-2-one]
viability at 24 h, 100 μM [1]: 100%
HO^• % (100 μΜ) scavenging [2]: 100%
ABTS^•+ % (100 μΜ) [3]: 27.8%
